Reference: US8088805B2, “Inhibitors of histone deacetylase” (MethylGene Inc., priority 2004, dated 2012)

Key:
[1] = tested on: HCT116 human colorectal carcinoma cells; test: Human tumor xenograft in vivo, HCT116; conditions: Mus musculus, HCT-116; 30 mg/kg ip, mice; read-out: % Inhibition (relative to vehicle control) HCT116
Protocol: (§1) Eight to ten week old female BCD1 mice (Taconic Labs, Great Barrington, N.Y.) were injected subcutaneously in the flank area with 2×10^6 preconditioned HCT116 human colorectal carcinoma cells, SW48 colon cancer cells, and A549 lung cancer cells. Preconditioning of these cells was done by a minimum of three consecutive tumor transplantations in the same strain of nude mice. Subsequently, tumor fragments of approximately 30 mgs were excised and implanted subcutaneously in mice, in the left flank area, under Forene anesthesia (Abbott Labs, Geneva, Switzerland). When the tumors reached a mean volume of 100 mm^3, the mice were treated intraperitoneally by daily injection, with a solution of the histone deacetylase inhibitor in DMSO, at a starting dose of 10 mg/kg. The optimal dose of the HDAC inhibitor was established by dose response experiments according to standard protocols. Tumor volume was calculated every second day post infusion according to standard methods (e.g., Meyer et al., Int. J. Cancer 43: 851-856 (1989)).

SW48 colon cancer cells = test: Human tumor xenograft in vivo, SW48; conditions: Mus musculus, 30 mg/kg ip, mice, read-out: % Inhibition (relative to vehicle control) SW48
Protocol: as §1

HCT116 cells = test: MTT assay; format: cell-based; conditions: Homo sapiens, HCT-116, 72 hours
Protocol: HCT116 cells (2000/well) were plated into 96-well tissue culture plates one day before compound treatment. Compounds at various concentrations were added to the cells. The cells were incubated for 72 hours at 37° C. in 5% CO2 incubator. MTT (3-[4,5-dimethylthiazol-2-yl]-2,5diphenyl tetrazolium bromide, Sigma) was added at a final concentration of 0.5 mg/ml and incubated with the cells for 4 hours before one volume of solubilization buffer (50% N,N-dimethylformamide, 20% SDS, pH 4.7) was added onto the cultured cells. After overnight incubation, solubilized dye was quantified by colorimetric reading at 570 nM using a reference at 630 nM using an MR700 plate reader (Dynatech Laboratories Inc.). OD values were converted to cell numbers according to a standard growth curve of the relevant cell line. The concentration which reduces cell numbers to 50% of that of solvent treated cells is determined as MTT IC50. In Table 14, “a” indicates activity of ≦0.1 μM, “b” indicates activity of ≦1 μM, and “c” indicates activity of ≦5 μM.

[2] = tested on: Histone H4 acetylation in T24 human bladder cancer cells; test: Histone H4 acetylation in whole cells by immunoblots; format: cell-based; conditions: ratio of EC50 of compound to EC50 of control MS-275, 16 h
Protocol: T24 human bladder cancer cells growing in culture were incubated with HDAC inhibitors for 16 h. Histones were extracted from the cells after the culture period as described by M. Yoshida et al. (J. Biol. Chem. 265(28): 17174-17179 (1990)). […] of total histone protein was loaded onto SDS/PAGE and transferred to nitrocellulose membranes. Membranes were probed with polyclonal antibodies specific for acetylated histone H-4 (Upstate Biotech Inc.), followed by horse radish peroxidase conjugated secondary antibodies (Sigma). Enhanced Chemiluminescence (ECL) (Amersham) detection was performed using Kodak films (Eastman Kodak). Acetylated H-4 signal was quantified by densitometry. Data are presented as the ratio of the concentration effective for […] the acetylated H-4 signal by 50% (EC50) using the indicated compound of the invention to a control compound, MS-275. If the indicated ratio is 1, then the compound of the invention is as effective as the MS-275 control compound. […] Further information regarding the MS-275 compound can be found in Suzuki et al., J. Med. Chem. 1999, pp. 3001-3003.

[3] = target: T1, cloned recombinant human HDAC-1 enzyme (Homo sapiens, UniProt Q13547); test: HDAC-1 enzymatic inhibition, Assay 1 ([3H]-acetylated histone substrate); format: biochemical; conditions: Assay 1: [3H]-labeled acetylated histone substrate, recombinant hHDAC-1
T1 construct: made in house; host or cells: Baculovirus insect cell expression system
T1 sequence (Q13547 whole entry): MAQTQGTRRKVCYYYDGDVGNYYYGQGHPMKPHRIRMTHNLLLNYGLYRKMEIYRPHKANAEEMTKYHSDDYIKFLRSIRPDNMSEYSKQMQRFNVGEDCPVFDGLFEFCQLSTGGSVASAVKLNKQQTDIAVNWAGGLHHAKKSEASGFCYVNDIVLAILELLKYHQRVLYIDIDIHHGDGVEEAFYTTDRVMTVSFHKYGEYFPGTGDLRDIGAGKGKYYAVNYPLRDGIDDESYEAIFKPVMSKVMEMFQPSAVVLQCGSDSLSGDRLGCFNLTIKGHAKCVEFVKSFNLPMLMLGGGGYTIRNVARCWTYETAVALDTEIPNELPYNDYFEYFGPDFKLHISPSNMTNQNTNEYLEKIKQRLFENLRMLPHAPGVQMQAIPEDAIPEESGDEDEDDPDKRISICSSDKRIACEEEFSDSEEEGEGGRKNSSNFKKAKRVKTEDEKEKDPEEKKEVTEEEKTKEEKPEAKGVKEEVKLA
Protocol: Assay 1. HDAC inhibitors were screened against a cloned recombinant human HDAC-1 enzyme expressed and purified from a Baculovirus insect cell expression system. For deacetylase assays, 20,000 cpm of the [^3H]-metabolically labeled acetylated histone substrate (M. Yoshida et al., J. Biol. Chem. 265(28): 17174-17179 (1990)) was incubated with 30 μg of the cloned recombinant hHDAC-1 for 10 minutes at 37° C. The reaction was stopped by adding acetic acid (0.04 M, final concentration) and HCl (250 mM, final concentration). The mixture was extracted with ethyl acetate and the released [^3H]-acetic acid was quantified by scintillation counting. For inhibition studies, the enzyme was preincubated with compounds at 4° C. for 30 minutes prior to initiation of the enzymatic assay. IC50 values for HDAC enzyme inhibitors were determined by performing dose response curves with individual compounds and determining the concentration of inhibitor producing fifty percent of the maximal inhibition.
(§2) Assay 1 was used to measure HDAC activity of compounds 10c, 13e, 16d, 26b, 44, 47, 61a, 61b, 63, 134, 138, and 308. Assay 2 was used to measure HDAC activity of compounds 361, 366, 367, 368, 369, 370, 371, 372, 373, 374, 375, 376, 377, and 378. In Table 14, “a” indicates activity of ≦0.1 μM, “b” indicates activity of ≦1 μM, “c” indicates activity of ≦5 μM, and “d” indicates activity of >5 μm. For the H4-Ac T24 EC vs. MS-275 assay in Table 14, “u” indicates less than 1, “v” indicates 1, and “w” indicates greater than 1. For the H3 Ac t24 assay in Table 14, “x” indicates activity of ≦1 μM, “y” indicates activity of ≦10 μM, and “z” indicates activity of ≦20 μM.

Human HDAC-1 = Human HDAC-1 (Homo sapiens, UniProt Q13547); test: HDAC-1 enzymatic inhibition, Assay 2 (Boc-Lys(Ac)-AMC, Fluor-de-Lys); format: biochemical; conditions: Assay 2: Boc-Lys(Ac)-AMC substrate, fluorescence; read-out: HDAC1 IC50
Chain of Human HDAC-1 (Q13547 whole entry): as above
Protocol: Assay 2. The following protocol was also used to assay the compounds of the invention. In the assay, the buffer used was 25 mM HEPES, pH 8.0, 137 mM NaCl, 2.7 mM KCl, 1 mM MgCl2 and the substrate was Boc-Lys(Ac)-AMC in a 50 mM stock solution in DMSO. The enzyme stock solution was 4.08 μg/mL in buffer. The compounds were pre-incubated (2 μl in DMSO diluted to 13 μl in buffer for transfer to assay plate) with enzyme (20 μl of 4.08 μg/ml) for 10 minutes at room temperature (35 μl pre-incubation volume). The mixture was pre-incubated for 5 minutes at room temperature. The reaction was started by bringing the temperature to 37° C. and adding […] substrate. Total reaction volume was 50 μl. The reaction was stopped after 20 minutes by addition of 50 μl developer, prepared as directed by Biomol (Fluor-de-Lys developer, Cat. # KI-105). A plate was incubated in the dark for 10 minutes at room temperature before reading (λEx=360 nm, λEm=470 nm, Cutoff filter at 435 nm).
as §2

IC50 (HCT116 cells) [nM]	IC50 [3] [nM]	IC50 (Human HDAC-1) [nM]	Compound	inhibition in vivo at 30 mg/kg [1] [%]	inhibition in vivo at 30 mg/kg (SW48 colon cancer cells) [%]	H4-Ac T24 EC vs. MS-275 [2]
			Nc1ccccc1NC(=O)c1ccc(CNc2nccc(-c3ccncc3)n2)cc1 [31b, N-(2-Amino-phenyl)-4-[(4-pyridin-4-yl-pyrimidin-2-ylamino)-methyl]-benzamide]	39.4	47.8	
≤ 100	1000 to 5000		CSc1nc(NCc2ccc(C(=O)Nc3ccccc3N)cc2)cc(-c2cccnc2)n1 [61a, N-(2-Amino-phenyl)-4-[(2-methylsulfanyl-6-pyridin-3-yl-pyrimidin-4-ylamino)-methyl]-benzamide]			v (“v” indicates 1)
> 5000		100 to 1000	Nc1ccccc1NC(=O)c1ccc(N2CC[C@H](Oc3ccc(C(=O)O)cc3)C2)cc1 [compound 373, (S)-4-(1-(4-(2-Aminophenylcarbamoyl)phenyl)pyrrolidin-3-yloxy)benzoic acid]			
100 to 1000	1000 to 5000		Nc1ccccc1NC(=O)c1ccc(CNc2ncc(-c3cccnc3)cn2)cc1 [13e, N-(2-Amino-phenyl)-4-[(5-pyridin-3-yl-pyrimidin-2-ylamino)-methyl]-benzamide]			v (“v” indicates 1)
100 to 1000		≤ 100	COC(=O)c1ccc(O[C@H]2CCN(c3ccc(C(=O)Nc4ccccc4N)cc3)C2)cc1 [compound 372, (S)-Methyl-4-(1-(4-(2-aminophenylcarbamoyl)phenyl)pyrrolidin-3-yloxy)benzoate]			
100 to 1000	1000 to 5000		COc1cccc(CCNc2ccnc(NCc3ccc(C(=O)Nc4ccccc4N)cc3)n2)c1 [10c, N-(2-Amino-phenyl)-4-({4-[2-(3-methoxy-phenyl)-ethylamino]-pyrimidin-2-ylamino}-methyl)-benzamide]			v (“v” indicates 1)
100 to 1000		100 to 1000	Nc1ccccc1NC(=O)c1ccc(N2CC[C@H](Oc3ccccc3)C2)cc1 [compound 371, (S)—N-(2-Aminophenyl)-4-(3-phenoxypyrrolidin-1-yl)benzamide]			
1000 to 5000		1000 to 5000	Nc1ccccc1NC(=O)c1ccc(N2CC[C@@H](Nc3ccccc3)C2)cc1 [compound 370, (R)—N-(2-Aminophenyl)-4-(3-(phenylamino)pyrrolidin-1-yl)benzamide]			
≤ 100	1000 to 5000		Nc1ccccc1NC(=O)c1ccc(CNc2cc(-c3cccnc3)ncn2)cc1 [61b, N-(2-Amino-phenyl)-4-[(6-pyridin-3-yl-pyrimidin-4-ylamino)-methyl]-benzamide]			u (“u” indicates less than 1)
100 to 1000		100 to 1000	Nc1ccccc1NC(=O)c1ccc(N2CC[C@H](Oc3ccc([N+](=O)[O-])cc3)C2)cc1 [compound 377, (S)—N-(2-Aminophenyl)-4-(3-(4-nitrophenoxy)pyrrolidin-1-yl)benzamide]			
1000 to 5000		1000 to 5000	Nc1ccccc1NC(=O)c1ccc(N2CC[C@H](Oc3ccc(Oc4ccccc4)cc3)C2)cc1 [compound 376, (S)—N-(2-Aminophenyl)-4-(3-(4-phenoxyphenoxy)pyrrolidin-1-yl)benzamide]			
≤ 100	1000 to 5000		Nc1ccccc1NC(=O)c1ccc(CNc2nccc(-c3ccc(CN4CCOCC4)cc3)n2)cc1 [compound 44, N-(2-Amino-phenyl)-4-{[4-(4-morpholin-4-ylmethyl-phenyl)-pyrimidin-2-ylamino]-methyl}-benzamide]			v (“v” indicates 1)
100 to 1000	1000 to 5000		Nc1ccccc1NC(=O)c1ccc(CNc2nc3ccc(O)cc3s2)cc1 [compound 134, N-(2-Amino-phenyl)-4-[(6-hydroxy-benzothiazol-2-ylamino)-methyl]-benzamide]			u (“u” indicates less than 1)
100 to 1000	1000 to 5000		COc1cc(NCc2ccc3oc(C(=O)Nc4ccccc4N)cc3c2)cc(OC)c1OC [compound 308, 5-[(3,4,5-Trimethoxy-phenylamino)-methyl]-benzofuran-2-carboxylic acid (2-amino-phenyl)-amide]			w (“w” indicates greater than 1)
100 to 1000		100 to 1000	Nc1ccccc1NC(=O)c1ccc(N2CC[C@@H](Oc3cccnc3)C2)cc1 [compound 368, (R)—N-(2-Aminophenyl)-4-(3-(pyridin-3-yloxy)pyrrolidin-1-yl)benzamide]			
100 to 1000	1000 to 5000		Nc1ccccc1NC(=O)c1ccc(CNc2ccnc(-c3cccnc3)n2)cc1 [compound 47, N-(2-Amino-phenyl)-4-[(2-pyridin-3-yl-pyrimidin-4-ylamino)-methyl]-benzamide]			u (“u” indicates less than 1)
100 to 1000	100 to 1000		Nc1ccccc1NC(=O)c1ccc(CNc2nccc(-c3ccc(F)c(F)c3)n2)cc1 [16d, N-(2-Amino-phenyl)-4-{[4-(3,4-difluoro-phenyl)-pyrimidin-2-ylamino]-methyl}-benzamide]			v (“v” indicates 1)
100 to 1000	1000 to 5000		Nc1ccccc1NC(=O)c1ccc(CNc2cncc(-c3cccnc3)n2)cc1 [compound 63, N-(2-Amino-phenyl)-4-[(6-pyridin-3-yl-pyrazin-2-ylamino)-methyl]-benzamide]			v (“v” indicates 1)
